Assay results reported in ChEMBL document CHEMBL4038307, “Influence of a Basic Side Chain on the Properties of Hypoxia-Selective Nitro Analogues of the Duocarmycins: Demonstration of Substantial Anticancer Activity in Combination with Irradiation or Chemotherapy” (J Med Chem, 2017).
Active and inactive are the calls of the source. The rule behind the calls is not given here.

Columns and labels:
[1] = system: HT-29; experiment: Cytotoxicity against human HT-29 cells incubated for 4 hrs under hypoxic condition measured after 5 days by SRB assay; assay type: functional, cell-based
[2] = system: SiHa; experiment: Cytotoxicity against human SiHa cells incubated for 4 hrs under oxic condition measured after 5 days by SRB assay; assay type: functional, cell-based
[3] = system: SiHa; experiment: Cytotoxicity against human SiHa cells incubated for 4 hrs under hypoxic condition measured after 5 days by SRB assay; assay type: functional, cell-based
[4] = system: HT-29; experiment: Ratio of IC50 for human HT-29 cells under oxic condition to IC50 for human HT-29 cells under hypoxic condition; assay type: functional
[5] = system: HT-29; experiment: Cytotoxicity against human HT-29 cells incubated for 4 hrs under oxic condition measured after 5 days by SRB assay; assay type: functional, cell-based
[6] = system: SiHa; experiment: Ratio of IC50 for human SiHa cells under oxic condition to IC50 for human SiHa cells under hypoxic condition; assay type: functional
[7] = system: NCI-H460; experiment: Antitumor activity against human H460 cells xenografted in CD-1 Foxn1 nude mouse assessed as reduction in colony forming cells under hypoxic condition at 13.3 umol/kg, iv treated 5 mins after gamma irradiation measured after 18 hrs by excision assay; assay type: functional, organism-based
[8] = system: SiHa; experiment: Antitumor activity against human SiHa cells xenografted in CD-1 Foxn1 nude mouse assessed as log reduction in colony forming cells under hypoxic condition at 42 umol/kg, iv treated 5 mins after gamma irradiation measured after 18 hrs by excision assay; assay type: functional
[9] = system: NCI-H460; experiment: Antitumor activity against human H460 cells xenografted in CD-1 Foxn1 nude mouse assessed as reduction in colony forming cells under hypoxic condition at 75 umol/kg, iv treated 5 mins after gamma irradiation measured after 18 hrs by excision assay; assay type: functional, organism-based
[10] = system: NCI-H460; experiment: Antitumor activity against human H460 cells xenografted in CD-1 Foxn1 nude mouse assessed as log reduction in colony forming cells under hypoxic condition at 56 umol/kg, iv treated 5 mins after gamma irradiation measured after 18 hrs by excision assay; assay type: functional
[11] = system: CWR22R; experiment: Antitumor activity against human 22Rv1 cells xenografted in CD-1 Foxn1 nude mouse assessed as reduction in colony forming cells under hypoxic condition at 30 umol/kg, iv treated 5 mins after gamma irradiation measured after 18 hrs by excision assay; assay type: functional, organism-based
[12] = system: HCT-116; experiment: Antitumor activity against human HCT116 cells xenografted in CD-1 Foxn1 nude mouse assessed as reduction in colony forming cells at 56 umol/kg, iv treated 5 mins after gamma irradiation measured after 18 hrs by excision assay; assay type: functional, organism-based
[13] = system: NCI-H1299; experiment: Antitumor activity against human H1299 cells xenografted in CD-1 Foxn1 nude mouse assessed as reduction in colony forming cells at 75 umol/kg, iv treated 5 mins after gamma irradiation measured after 18 hrs by excision assay; assay type: functional, organism-based
[14] = system: NCI-H460; experiment: Antitumor activity against human H460 cells xenografted in CD-1 Foxn1 nude mouse assessed as reduction in colony forming cells under hypoxic condition at 23.7 umol/kg, iv treated 5 mins after gamma irradiation measured after 18 hrs by excision assay; assay type: functional, organism-based
[15] = system: SiHa; experiment: Antitumor activity against human SiHa cells xenografted in CD-1 Foxn1 nude mouse assessed as reduction in colony forming cells under hypoxic condition at 23.7 umol/kg, iv treated 5 mins after gamma irradiation measured after 18 hrs by excision assay; assay type: functional, organism-based
[16] = system: Mus musculus; experiment: Toxicity in CD-1 Foxn1 nude mouse xenografted with human H460 cells assessed as death at 75 umol/kg, iv; settings: in vivo
[17] = system: Mus musculus; experiment: Toxicity in CD-1 Foxn1 nude mouse xenografted with human SiHa cells assessed as death at 75 umol/kg, iv; settings: in vivo
[18] = system: Mus musculus; experiment: Toxicity in CD-1 Foxn1 nude mouse xenografted with human H460 cells assessed as death at 13 umol/kg, iv; settings: in vivo
[19] = system: Mus musculus; experiment: Toxicity in CD-1 Foxn1 nude mouse xenografted with human SiHa cells assessed as death at 13 umol/kg, iv; settings: in vivo

SMILES	Activity [1]	Activity [2]	Activity [3]	Ratio IC50 [4]	Activity [5]	Ratio IC50 [6]	other results
CN(C)c1ccc2[nH]c(C(=O)N3CC(CCl)c4c3cc(N)c3cc(S(=O)(=O)NCCO)ccc43)cc2c1 (stereo not given)	Active	Active	Active	1	Active	1	
CCN(CC)CCOc1ccc2[nH]c(C(=O)N3CC(CCl)c4c3cc([N+](=O)[O-])c3cc(S(=O)(=O)NCCO)ccc43)cc2c1 (stereo not given)				27 - 68		27 - 68	
Nc1cc2c(c3ccc(S(=O)(=O)NCCO)cc13)C(CCl)CN2C(=O)c1cc2cc(OCCCN3CCOCC3)ccc2[nH]1 (stereo not given)	Active	Active	Active	1	Active	1	
CN(C)Cc1ccc2[nH]c(C(=O)N3CC(CCl)c4c3cc(N)c3cc(S(=O)(=O)NCCO)ccc43)cc2c1 (stereo not given)	Active	Active	Active	1	Active	1	
COc1cc2cc(C(=O)N3CC(CCl)c4c3cc(N)c3cc(S(=O)(=O)NCCO)ccc43)[nH]c2c(OC)c1OC (stereo not given)	Active	Active	Active	1	Active	1	
O=C(c1ccc(OCCN2CCOCC2)cc1)N1CC(CCl)c2c1cc([N+](=O)[O-])c1cc(S(=O)(=O)NCCOP(=O)(O)O)ccc21 (stereo not given)							Activity [7]: inactive; Activity [8]: Active
O=C(/C=C/c1ccc(OCCN2CCOCC2)cc1)N1CC(CCl)c2c1cc([N+](=O)[O-])c1cc(S(=O)(=O)NCCOP(=O)(O)O)ccc21 (stereo not given)							Activity [9]: Active; Activity [10]: >1; Activity [8]: Active
CN(C)CC(=O)Nc1ccc2[nH]c(C(=O)N3CC(CCl)c4c3cc(N)c3cc(S(=O)(=O)NCCO)ccc43)cc2c1 (stereo not given)	Active	Active	Active	1	Active	1	
Nc1cc2c(c3ccc(S(=O)(=O)NCCO)cc13)C(CCl)CN2C(=O)/C=C/c1ccc(OCCN2CCOCC2)cc1 (stereo not given)	Active	Active	Active	1	Active	1	
O=C(c1cc2cc(OCCCN3CCOCC3)ccc2[nH]1)N1CC(CCl)c2c1cc([N+](=O)[O-])c1cc(S(=O)(=O)NCCOP(=O)(O)O)ccc21 (stereo not given)							Activity [11]: Active; Activity [9]: Active; Activity [12]: Active; Activity [8]: >1; Activity [13]: Active
Nc1cc2c(c3ccc(S(=O)(=O)NCCO)cc13)C(CCl)CN2C(=O)c1cc2cc(OCCN3CCOCC3)ccc2[nH]1 (stereo not given)	Active	Active	Active	1	Active	1	
Nc1cc2c(c3ccc(S(=O)(=O)NCCO)cc13)C(CCl)CN2C(=O)CCN1CCOCC1 (stereo not given)	Active	Active	Active	1	Active	1	
Nc1cc2c(c3ccc(S(=O)(=O)NCCO)cc13)C(CCl)CN2C(=O)/C=C/c1ccc(OCCCN2CCOCC2)cc1 (stereo not given)	Active	Active	Active	1	Active	1	
CN(C)CCOc1ccc2[nH]c(C(=O)N3CC(CCl)c4c3cc([N+](=O)[O-])c3cc(C(=O)NCCOP(=O)(O)O)ccc43)cc2c1 (stereo not given)							Activity [11]: Active; Activity [12]: Active; Activity [8]: Active; Activity [13]: Active
CN(C)CCCOc1ccc2[nH]c(C(=O)N3CC(CCl)c4c3cc([N+](=O)[O-])c3cc(S(=O)(=O)NCCOP(=O)(O)O)ccc43)cc2c1 (stereo not given)							Activity [11]: Active; Activity [12]: Active; Activity [13]: Active
O=C(c1cc2cc(OCCCN3CCOCC3)ccc2[nH]1)N1CC(CCl)c2c1cc([N+](=O)[O-])c1cc(S(=O)(=O)NCCO)ccc21 (stereo not given)	inactive		inactive				
CCN(CC)CCOc1ccc2[nH]c(C(=O)N3CC(CCl)c4c3cc([N+](=O)[O-])c3cc(S(=O)(=O)NCCOP(=O)(O)O)ccc43)cc2c1 (stereo not given)							Activity [14]: inactive; Activity [15]: Active

SMILES	Activity [1]	Activity [2]	Activity [3]	Ratio IC50 [4]	Activity [5]	Ratio IC50 [6]	other results
CN(C)CCCOc1ccc2[nH]c(C(=O)N3CC(CCl)c4c3cc([N+](=O)[O-])c3cc(S(=O)(=O)NCCO)ccc43)cc2c1 (stereo not given)				27 - 68		27 - 68	
CN(C)CCC(=O)Nc1ccc2[nH]c(C(=O)N3CC(CCl)c4c3cc(N)c3cc(S(=O)(=O)NCCO)ccc43)cc2c1 (stereo not given)	Active	Active	Active	1	Active	1	
O=C(c1cc2cc(OCCN3CCOCC3)ccc2[nH]1)N1CC(CCl)c2c1cc([N+](=O)[O-])c1cc(S(=O)(=O)NCCO)ccc21 (stereo not given)	inactive		inactive				
CN(C)Cc1ccc2[nH]c(C(=O)N3CC(CCl)c4c3cc([N+](=O)[O-])c3cc(S(=O)(=O)NCCOP(=O)(O)O)ccc43)cc2c1 (stereo not given)							Activity [9]: inactive; Activity [8]: Active
CN(C)CC(=O)Nc1ccc2[nH]c(C(=O)N3CC(CCl)c4c3cc([N+](=O)[O-])c3cc(S(=O)(=O)NCCOP(=O)(O)O)ccc43)cc2c1 (stereo not given)							Activity [16]: Non-Toxic; Activity [17]: Non-Toxic
O=C(NCCOP(=O)(O)O)c1ccc2c3c(cc([N+](=O)[O-])c2c1)N(C(=O)/C=C/c1ccc(OCCN2CCOCC2)cc1)CC3CCl (stereo not given)							Activity [9]: Active; Activity [8]: Active
O=C(NCCOP(=O)(O)O)c1ccc2c3c(cc([N+](=O)[O-])c2c1)N(C(=O)c1cc2cc(OCCN4CCOCC4)ccc2[nH]1)CC3CCl (stereo not given)							Activity [8]: >1
O=C(/C=C/c1ccc(OCCCN2CCOCC2)cc1)N1CC(CCl)c2c1cc([N+](=O)[O-])c1cc(S(=O)(=O)NCCOP(=O)(O)O)ccc21 (stereo not given)							Activity [9]: Active; Activity [8]: Active
O=C(CCN1CCOCC1)N1CC(CCl)c2c1cc([N+](=O)[O-])c1cc(S(=O)(=O)NCCOP(=O)(O)O)ccc21 (stereo not given)							Activity [9]: inactive; Activity [8]: Active
CCN(CC)CCOc1ccc2[nH]c(C(=O)N3CC(CCl)c4c3cc(N)c3cc(S(=O)(=O)NCCO)ccc43)cc2c1 (stereo not given)	Active	Active	Active	1	Active	1	
CN(C)CCOc1ccc2[nH]c(C(=O)N3CC(CCl)c4c3cc([N+](=O)[O-])c3cc(C(=O)NCCO)ccc43)cc2c1 (stereo not given)	Active				Active		
CN(C)CCOc1ccc2[nH]c(C(=O)N3CC(CCl)c4c3cc(N)c3cc(S(=O)(=O)NCCO)ccc43)cc2c1 (stereo not given)	Active	Active	Active	1	Active	1	
CN(C)CCC(=O)Nc1ccc2[nH]c(C(=O)N3CC(CCl)c4c3cc([N+](=O)[O-])c3cc(S(=O)(=O)NCCOP(=O)(O)O)ccc43)cc2c1 (stereo not given)							Activity [18]: Toxic; Activity [19]: Toxic
CN(C)Cc1ccc2[nH]c(C(=O)N3CC(CCl)c4c3cc([N+](=O)[O-])c3cc(S(=O)(=O)NCCO)ccc43)cc2c1 (stereo not given)				27 - 68		27 - 68	
Nc1cc2c(c3ccc(S(=O)(=O)NCCO)cc13)C(CCl)CN2C(=O)c1ccc(OCCN2CCOCC2)cc1 (stereo not given)	Active	Active	Active	1	Active	1	
CN(C)CCOc1ccc2[nH]c(C(=O)N3CC(CCl)c4c3cc([N+](=O)[O-])c3cc(S(=O)(=O)NCCO)ccc43)cc2c1 (stereo not given)	Active				Active		
CN(C)CCCOc1ccc2[nH]c(C(=O)N3CC(CCl)c4c3cc(N)c3cc(S(=O)(=O)NCCO)ccc43)cc2c1 (stereo not given)	Active	Active	Active	1	Active	1	
